Experimental findings from patent US10787640B2, “Producing mesodermal cell types and methods of using the same” (The Board of Trustees of the Leland Stanford Junior …, priority 2015, dated 2020) are described below.

Common to all, as to type: cell-based, human
For test [1], the system named is hESC-derived cardiac mesoderm. Kind of test: Cardiac mesoderm differentiation into cardiovascular fates, qPCR. The note with it: BMP4 30 ng/mL+XAV939 1 μM with FGF2 or FGF receptor antagonists at 100 nM, 48 hours. Here is the method: Day 2 lateral mesoderm was differentiated into day 4 cardiac mesoderm by treating them with 1 μM A8301+30 ng/mL BMP4+1 μM C59+20 ng/mL FGF2 for 48 hrs, or alternatively, with 1 μM A8301+30 ng/mL BMP4+20 ng/mL FGF2 for 24 hrs followed by 25 ng/mL Activin+30 ng/mL BMP4+1 μM C59 for the next 24 hrs (schema in FIG. 5E; positive effect of mid-stage Activin shown in FIG. 12K). Subsequently, day 4 cardiac mesoderm was briefly washed (DMEM/F12) and treated with 30 ng/mL BMP4+1 μM XAV939+200 μg/mL 2-phospho-ascorbic acid (Sigma) for 48-96 hrs to yield day 6-8 cardiomyocyte-containing populations. Spontaneously contracting cardiomyocyte foci were evident from day 8 onwards.
C) To reveal the possible identity of non-cardiac mesoderm lineages that were contaminating cardiac mesoderm-containing cultures, NKX2.5-GFP hESCs were differentiated towards mid primitive streak (day 1) and were differentiated towards a heterogeneous population containing cardiac mesoderm (day 3) by treatment with SB-505124+BMP4+C59 (without FGF2) on days 2-3 of differentiation. FACS was performed on day 3 to purify either NKX2.5-GFP^+ or NKX2.5-GFP^− cells (top subpanels) which were sorted for qPCR (bottom subpanels). Gene expression was normalized to expression of a gene in the NKX2.5-GFP^+ fraction (dotted line). D) Timecourse of gene expression in hESCs differentiating towards mid primitive streak and lateral mesoderm, with treatment by SB-505124+BMP4+C59 on days 2-3 of differentiation. […] G) To assess whether a stabilized vitamin C analog (ascorbic acid-2-phosphate) (AA2P) enhanced cardiac mesoderm differentiation into cardiomyocytes, day 4 hESC-derived cardiac mesoderm was exposed to BMP4 (30 ng/mL)+XAV939 (1 μM) for 48 hours in the presence or absence of 200 μg/mL AA2P and qPCR was conducted of day 6 populations; qPCR data were normalized such that expression values in the highest-expressing sample was normalized=1.0. […] J) In the mouse embryo, endocardium (progenitors to heart-affiliated endothelium) are marked by transient coexpression of pan-heart marker Nkx2.5 together with endothelial markers (Ferdous et al., 2009; Stanley et al., 2002).
For orientation: In qPCR the cycle at which signal appears reflects the starting amount.

Test [2] relates to day 5 hematopoietic intermediates. Kind of test: Day 5-7 continued differentiation of hematopoietic intermediates, factor withholding. The note with it: for GFI1B expression: individually withholding the factor from the 8 factors, 48 hours. Here is the method:
SOX17^mCherry/+ H9 hESCs (referred to as SOX17-mCherry hESCs throughout this study) were routinely propagated in mTeSR1 (StemCell Technologies)+1% penicillin/streptomycin. They were passaged ˜1:12-1:25 as fine clumps using Accutase (Gibco) onto plates precoated with a Geltrex substratum (Gibco) in mTeSR1 medium supplemented with thiazovivin ([…]; a ROCK inhibitor). After overnight plating, hESCs were washed (DMEM/F12) and differentiated towards posterior PS using BMP4 (15-40 ng/mL, R&D Systems), CHIR99021 ([…]), FGF2 (20 ng/mL, Invitrogen) and PIK90 (100 nM, Calbiochem) for 24 hours, with the optional inclusion of Activin (30 ng/mL, R&D Systems) to induce mid PS. Day 1 mid or posterior PS was subsequently washed (DMEM/F12) and further differentiated using BMP4 (40 ng/mL), GDC-0941 (0.25-2.5 μM, Cellagen Technology), Forskolin (10 μM, Tocris), SB-505124 ([…]), VEGF (100 ng/mL, R&D Systems), XAV939 (1 μM, Tocris) and ascorbic acid-2-phosphate (200 μg/mL, Sigma) for 24 hours. Day 2 cultures were further directed into the definitive hematopoietic lineage/hemogenic precursors by Activin A (15 ng/mL), GDC-0941 (0.25-2.5 μM), VEGF (100 ng/mL), XAV939 (1 μM) and ascorbic acid-2-phosphate (200 μg/mL) for 24 hours. Day 3 definitive hematopoietic progenitors were subsequently differentiated into early Runx1^lowGfi1^low hemogenic intermediates through day 4-5 treatment with BMP4 (50 ng/mL), TTNPB (500 nM), VEGF (100 ng/mL) and XAV939 (1 μM) for 48 hours, supplemented with SB-505124 (2 μM) on day 5. Day 5 populations were then dissociated into single cells, counted and reaggregated in individual wells of a low-adhesion V-bottom or U-bottom 96-well plate (e.g., Thermo Fisher, catalog no. 249952) with ˜15,000-20,000 cells seeded per well. Aggregates were cultured for 48 additional hours until day 7 in BMP4 (50 ng/mL), TTNPB (500 nM), VEGF (100 ng/mL), XAV939 (1 μM), SB-505124 (2 μM), SCF (25-50 ng/mL, R&D Systems), IL6 (10 ng/mL, R&D Systems) and IL6RA (250-1000 ng/mL, R&D Systems). All differentiation was conducted in serum-free CDM2 fully-defined basal media.

The subject of test [3] is day 3 early somite progenitors. Kind of test: Patterning of early somite progenitors into sclerotome or dermomyotome. Here is the method:
Day 2 paraxial mesoderm was briefly washed (DMEM/F12) and further differentiated into day 3 early somite/somitomere precursors for 24 hours (1 μM A-83-01+250 nM LDN-193189+1 μM C59+500 nM PD0325901). Subsequently, day 3 early somites were dorsoventrally patterned into either ventral somites/sclerotome (5 nM 21K+1 μM C59) or dorsal somites/dermomyotome (3 μM CHIR99021+150 nM Vismodegib). Sclerotome induction was conducted for 48-72 hours (leading to day 5-6 ventral somite progenitors). […] Media was changed 24 hours for all steps. The Hedgehog agonist 21K, which has been previously described in, e.g., Brunton et al., 2009 the disclosure of which is incorporated herein by reference in its entirety, was commercially synthesized.
Day 3 early somites were briefly washed (DMEM/F12), treated with BMP4+CHIR99021+Vismodegib for 24 hours, washed again (DMEM/F12) and subsequently treated with CHIR99021 (3 μM)+21K (5 nM) for 24 hours. This day 5 dermomyotome was further empirically differentiated towards skeletal muscle-like progeny (using medium containing 2% horse serum, which has been previously described in, e.g., Xu et al. 2013, the disclosure of which is incorporated herein by reference in its entirety) for 12 days, yielding day 17 skeletal muscle-containing populations.
FIG. 11: A) To determine the length of time required for sclerotome differentiation, a qPCR timecourse was performed, encompassing undifferentiated hESCs (D0), day 2 hESC-derived paraxial mesoderm (D2 PXM), day 3 hESC-derived early somite progenitors, and hESC-derived day 3 early somite progenitors that were exposed to sclerotome inductive conditions (5 nM 21K+1 μM C59) for 24 or 48 hours. B) Description of EF1α-BCL2-T2A-GFP lentiviral construct (otherwise known as “C306”; top) and FACS plot of a stably-transduced polyclonal H9 hESC line with near-uniform expression of the BCL2-T2A-GFP transgene (green contour) by comparison to uncolored wild-type hESCs (bottom) (see above methods for details of derivation of the H9 BCL2-T2A-GFP hESC line). C) Higher-magnification picture of BCL2-T2A-GFP hESC-derived sclerotome ectopic bone grafts (originally described above in FIG. 4, panel E), showing that despite the near-ubiquitous expression of GFP throughout the ectopic bone graft (indicating its human provenance), the blood vessels are clearly GFP-negative and therefore presumably derived from the mouse host; scale bar=1 mm. […] L) Description of EF1a-BCL2-T2A-GFP lentiviral construct (otherwise known as “C306”; top) and FACS plot of a stably-transduced polyclonal H9 hESC line with near-uniform expression of the BCL2-T2A-GFP transgene (green contour) by comparison to uncolored wild-type hESCs (bottom) (see the methods described herein for details of derivation of the H9 BCL2-T2A-GFP hESC line). M) Description of UBC-Luciferase-T2A-tdTomato lentiviral construct (top); bioluminescent assay of cultured H9 UBC-Luciferase-T2A-tdTomato hESCs validates that these cells are luciferase-expressing in vitro (bottom).

As for `CCN1CCN(c2ccc(Nc3cc(N(C)C(=O)Nc4c(Cl)c(OC)cc(OC)c4Cl)ncn3)cc2)CC1` [BGJ398], in test [1], the cardiovascular fate promoted result was “promoted (pro)epicardium”.

VEGF: the GFI1B expression entry in test [2] is listed as “did not markedly impair GFI1B expression”. The “vein marker NR2F2 expression” value in test [2] (withholding the factor) is recorded as “increased expression of the vein marker NR2F2”.

For the molecule `CS(=O)(=O)c1ccc(C(=O)Nc2ccc(Cl)c(-c3ccccn3)c2)c(Cl)c1` [Vismodegib], the “dorsal somite marker PAX3 and sclerotome fate” value in test [3] (CHIR together with Vismodegib) is “sustained dorsal somite marker PAX3 while inhibiting the sclerotome fate”.

Turning to FGF2: FGF agonist, FGF family ligand, the cardiovascular fate promoted result in test [1] was “promoted endocardium”.

Regarding `CN[C@H]1CC[C@H](N(Cc2ccc(OC)c(-c3ccncc3)c2)C(=O)c2sc3c(F)ccc(F)c3c2Cl)CC1` [21K, 3-chloro-4,7-difluoro-N-(4-methoxy-3-(pyridin-4-yl)benzyl)-N-((1r,4r)-4-(methylamino)cyclohexyl)benzo[b]thiophene-2-carboxamide], in test [3] (21K with C59, 2-3 days), the sclerotome fate induction result was “efficiently induced the sclerotome fate”. The EN1 induction result in test [3] (later stage CHIR99021+21K 5 nM, 24-48 hours) is reported as “important to induce EN1”.

Regarding AZD4547, the cardiovascular fate promoted result in test [1] is reported as “promoted (pro)epicardium”.

In the case of `CCN(CC)CCCCNc1ncc2cc(-c3cc(OC)cc(OC)c3)c(NC(=O)NC(C)(C)C)nc2n1` [PD173074, N-[2-[[4-(Diethylamino)butyl]amino]-6-(3,5-dimethoxyphenyl)pyrido[2,3-d]pyrimidin-7-yl]-N′-(1,1-dimethylethyl)urea], in test [1], the cardiovascular fate promoted entry is on record as “promoted (pro)epicardium”.

As for “SCF: SCF protein signaling through the KIT receptor”, the GFI1B expression entry in test [2] is “strongly diminished”.

With IL6: IL6 ligand, in test [2], the GFI1B expression entry is recorded as “strongly diminished”.

B1: IL6RA: soluble IL6 receptor ectodomain (protein)
chain: LAPRRCPAQEVARGVLTSLPGDSVTLTCPGVEPEDNATVHWVLRKPAAGSHPSRWAGMGRRLLLRSVQLHDSGNYSCYRAGRPAGTVHLLVDVPPEEPQLSCFRKSPLSNVVCEWGPRSTPSLTTKAVLLVRKFQNSPAEDFQEPCQYSQESQKFSCQLAVPEGDSSFYIVSMCVASSVGSKFSKTQTFQGCGILQPDPPANITVTAVARNPRWLSVTWQDPHSWNSSFYRLRFELRYRAERSKTFTTWMVKDLQHHCVIHDAWSGLRHVVQLRAQEEFGQGEWSEWSPEAMGTPWTESRSPPAENEVSTPMQALTTNKDDDNILFRDSANATSLPVQDSSSVPLP
B1: in test [2], the GFI1B expression entry is “strongly diminished”.
